Source: patent US20110217293A1, “Uses of morelloflavone” (priority 2008, published 2011)
Entries after “also recorded” stand apart in the source; their conditions may differ. Where two headings read alike, the source gives them in different places.

What was measured:
[1] = tested on: Cdc42; assay: GTPase activation assay, Cdc42; assay type: cell-based, mouse; parameters: dose or concentration left out as unconfirmed
Procedure: To assess the phosphorlyation status of ERK, […] of whole cell lysates was loaded onto SDS-PAGE, and Western blot analysis was done using anti-p-ERK (Santa Cruz; E-4; sc-7383) and anti-ERK (Santa Cruz; K-23; sc-94) antibodies. To detect active RhoA, Rac1 and Cdc42, generated GST-tagged RhoA binding domain of Rhotekin protein (GST-Rhotekin-RBD) and GST-tagged p21-binding domain of p21-activated kinase 1 (PAK1)(GST-PAK1-PBD) were first generated. Briefly, E. coli BL21 cells transformed with pGEX4T-PAK1-PBD or pGEX4T-Rh,otekin-RBD were grown at 37° C. and expression of recombinant protein was induced by addition of 0.1 mM IPTG for 3 hours. Cells were resuspended in lysis buffer (50 mM Tris-HCl, pH 8.0, 10% glycerol, 20% sucrose, 2 mM DTT, 1 mg/ml leupeptin, 1 mg/ml pepstatin, and 1 mg/ml aprotinin), sonicated, and centrifuged at 4° C. for 30 min at 45,000 g. The supernatant was incubated with glutathione sepharose 4B beads (GE-Amersham, Piscataway, N.J.) for 1 hour at 4° C., and then washed 3 times in lysis buffer. Using these GST-proteins, GTPase activation assays were performed as described. […]

[2] = biological target: T1, sPLA2-V (Homo sapiens, UniProt P39877); assay: sPLA2 enzyme activity assay, Group V; assay type: biochemical; conditions: recombinant human sPLA2-V, data not shown
T1 sequence (P39877 21-138): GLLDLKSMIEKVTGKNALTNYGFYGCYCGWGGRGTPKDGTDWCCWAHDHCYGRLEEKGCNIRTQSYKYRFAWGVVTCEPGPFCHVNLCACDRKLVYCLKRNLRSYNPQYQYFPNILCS
Procedure: Recombinant human sPLA2 isoforms, Group IB, Group IIA, Group V, and Lp-PLA2 were obtained from R&D Systems and Cayman Chemical Co. sPLA2 enzyme activities in the presence of various concentrations of morelloflavone or other inhibitors were determined using a commercially available assay system according to the manufacturer's instructions (Cayman Chemical Co.). Thioetheramide-1-palmitylthio-2-palmitoylamido-1,2-dideoxy-sn-glycero-3-phosphorylcholine (T-PC) and methyl arachidonyl fluorophosphonate (MAFP) were used as inhibitors of sPLA2 (IB, IIA, and V) and Lp-PLA2, respectively, per manufacturers' instructions.

[3] = tested on: focal adhesion kinase (FAK); assay: Western blot, phosphorylation of FAK; assay type: cell-based, mouse; conditions: low concentrations (0.1 & 1 mM), 5 min
Procedure: For the evaluation of phosphorylated FAK and c-Src, Western blot analyses were performed as described (15). Briefly, vascular smooth muscle cells were seeded on 10-cm dishes, treated with various concentrations of morelloflavone for 5 min, and harvested into RIPA buffer with protease inhibitor cocktails. Cleared cell lysates ([…] of protein) were incubated with anti-FAK or anti-c-Src antibodies at 4° C. for 1 hr in a final volume of 1 mL RIPA buffer, and incubated for another 1 hr with protein A/G agarose beads (Santa Cruz; SCBT sc-2003). Immunoprecipitated proteins were eluted into SDS-loading 7 buffer and subjected to 12% SDS-PAGE and immunoblotting using anti-FAK (Santa Cruz; A-17; sc-557) and anti-c-Src (Santa Cruz; SRC-2; sc-18) antibodies for total FAK and c-Src, respectively, and anti-phosphotyrosine antibody (Santa Cruz; PY-20; sc-508) for phosphorylated FAK and c-Src. Densitometric analyses were performed using Adobe Photoshop (Adobe Systems Incorporated, San Jose, Calif.).

[4] = tested on: vascular smooth muscle cells; assay: MTT cell death (viability) assay; assay type: cell-based, mouse; parameters: dose or concentration left out as unconfirmed; conditions: 48 hrs
Procedure: Mouse vascular smooth muscle cells, isolated as described (13), were maintained in 231 media (Cascade Biologics, Portland, Oreg.) supplemented with SMGS (Cascade Biologics) in a humidified incubator at 37° C. with 5% CO2. Cells from passages 4-9 were used in all experiments. All experiments were performed in subconfluent, unsynchronized cells growing in SMGS except for the lamellipodium formation assay. Vascular smooth muscle cells were plated at 1×10^4 cells per well in 96-well culture plates and incubated overnight. The cells were treated with various concentrations of morelloflavone for 48 hrs. Then, the cells were exposed to MTT labeling reagent at 10 mg/mL for 4 hrs and solubilized in 0.01 N HCl containing 10% SDS overnight. Formed formazan was measured via spectrophotometry at 600 nm.

Compound: O=C1c2c(O)cc(O)cc2O[C@H](c2ccc(O)cc2)[C@H]1c1c(O)cc(O)c2c(=O)cc(-c3ccc(O)c(O)c3)oc12 [morelloflavone, 5,7, 4′, 5″, 7″, 3″, 4″-heptahydroxy-[3,8″]-flavonylflavanone]
- activation of Cdc42 [1]: blocks the activation
- activation of Cdc42 ([1]; concentration not given): no significant effect; also recorded: without affecting
- IC50 [2]: > 10 µM
- phosphorylation of FAK [3]: inhibited; also recorded: robustly decreased phosphorylation; also recorded: blocks
- cytotoxicity / cell survival (MTT) [4]: no cytotoxicity; also recorded: does not affect; also recorded: not cytotoxic; also recorded: does not induce cytotoxicity
